Assay results from PubChem BioAssay (NCI).
Values joined by “and” are separate entries in the source; they are usually repeats but may differ in a detail not shown here. Equal entries are not always repeated.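 The compound was tested at five concentrations on cells cultured in 96-well plates, with a 48-hour exposure period. Here, GI50 denotes the concentration required for 50% inhibition of growth. TGI marks complete inhibition of growth.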 Where a SMILES comes first, the peptide text is derived from it. [ ]: non-standard residue; d: D form. The star is where a group is joined. ξ: configuration not given here. 4Abz = Nc1ccc(C(=O)O)cc1; ξL = CC(C)CC(N)C(=O)O; NHOH = ON*

What was measured:
Test in all cases: NCI tumour cell line growth inhibition, 48 h
LOX IMVI melanoma = system: LOX IMVI melanoma
SK-MEL-28 melanoma = system: SK-MEL-28 melanoma
EKVX NSCLC = system: EKVX NSCLC
M14 melanoma = system: M14 melanoma
IGROV1 ovarian = system: IGROV1 ovarian
HCC-2998 colon = system: HCC-2998 colon
HCT-116 colon = system: HCT-116 colon
TK-10 renal = system: TK-10 renal
SN12C renal = system: SN12C renal
HOP-92 NSCLC = system: HOP-92 NSCLC

Row | SMILES | GI50 (LOX IMVI melanoma) [µM] | TGI (LOX IMVI melanoma) [µM] | GI50 (SK-MEL-28 melanoma) | TGI (SK-MEL-28 melanoma) [µM] | GI50 (EKVX NSCLC) | TGI (EKVX NSCLC) | GI50 (M14 melanoma) [µM] | TGI (M14 melanoma) [µM] | GI50 (IGROV1 ovarian) [µM] | TGI (IGROV1 ovarian) [µM] | GI50 (HCC-2998 colon) [µM] | TGI (HCC-2998 colon) [µM] | GI50 (HCT-116 colon) [µM] | TGI (HCT-116 colon) [µM] | GI50 (TK-10 renal) [µM] | TGI (TK-10 renal) [µM] | TGI (SN12C renal) | GI50 (SN12C renal) [µM] | GI50 (HOP-92 NSCLC) [µM] | TGI (HOP-92 NSCLC) [µM]
1 | CC(C)CC(NC(=O)[C@@H]1CCCN1C(=O)CNC(=O)c1ccc(N)cc1)C(=O)N[C@H](C)C(=O)NO (stereo partly drawn) (H-[4Abz]GP[ξL][dA]-{NHOH}) | > 100 | > 100 | > 100 µM | > 100 | > 100 µM | > 100 µM | > 100 | > 100 | > 100 | > 100 | > 100 | > 100 | > 100 | > 100 | > 100 | > 100 | – | – | – | –
2 | COc1ncn(C2C=C(CO)C(O)C2O)c(=O)n1 (stereo not drawn) | – | – | – | > 100 | – | > 100 µM | – | > 100 | – | > 100 | – | > 100 | – | > 100 | – | > 100 | > 100 µM | – | – | –
3 | O=C(CCCCCn1c2ccccc2c2c3c(c4c5ccccc5[nH]c4c21)C(=O)N(O)C3=O)N1CCOCC1 | 1.05 | 2.57 | 2.32 µM | 5.4 | 4.62 µM | 43.3 µM | 2.14 | 5.52 | 2.16 | 4.92 | 1.85 | 3.54 | – | – | 2.03 | 5.72 | > 100 µM | 3.37 | – | –
4 | Nc1nc(Cl)cc2c1ncn2C1OC(CO)C(O)C1O (stereo not drawn) | > 100 | > 100 | > 100 µM | > 100 | > 100 µM | > 100 µM | > 100 | > 100 | > 100 | > 100 | – | – | – | – | > 100 | > 100 | – | – | > 100 | > 100
5 | C[N+](C)(C)CC(=O)NC(=O)N/N=C\C(CC#N)CN(Cc1ccccc1)Cc1ccccc1 (stereo not drawn) | – | > 100 | – | > 100 | – | > 100 µM | – | > 100 | – | > 100 | – | > 100 | – | > 100 | – | > 100 | > 100 µM | – | – | –
6 | O=C1/C=C(/c2ccc(O)cc2)[C@H](O)Cc2ccc(OC3OC(CO)C(O)C(O)C3O)cc2O1 (stereo partly drawn) (tested in a mixture with another compound) | – | > 100 | – | – | – | > 100 µM | – | > 100 | – | > 100 | – | – | – | > 100 | – | > 100 | > 100 µM | – | – | –
7 | Cc1cc(C)c(-c2noc(-c3ccc(Cl)cc3)c2C2=NCCN2)c(C)c1 | – | 42.9 | – | 36.9 | – | 71.8 µM | – | 27 | – | 76.7 | – | 36 | – | 64.5 | – | – | 45.5 µM | – | – | –
8 | COC(=O)C1=C(SC)SC2(C(=O)OC)C3C=C(C)C4C(N13)C42C(=O)OC (stereo not drawn) | – | > 100 | – | > 100 | – | > 100 µM | – | > 100 | – | > 100 | – | > 100 | – | > 100 | – | > 100 | > 100 µM | – | – | –
9 | COc1cc(Oc2cnc3cc(N)cc(N)c3n2)cc(OC)c1OC | 33.4 | > 100 | 36.6 µM | > 100 | 61.4 µM | > 100 µM | 22.7 | 76.2 | 32.8 | > 100 | 15.6 | 32.2 | 19.6 | 42.8 | 33.3 | > 100 | > 100 µM | 71.2 | – | –
10 | Nc1ncnc2c1ncn2C1OC(CO)C(O)C1O (stereo not drawn) | 5.73 | > 450 | > 100 µM and 313 µM and 62.3 µM | > 450 | > 100 µM and 48.3 µM and 17 µM | > 100 µM and 152 µM and > 84.3 µM | 32.2 | > 100 | > 450 | > 450 | 1.61 | – | 7.58 | > 450 | 41.1 | > 100 | > 100 µM and 393 µM and 97.6 µM | 16 | – | –
11 | COC(=O)c1ccc2n[se]nc2c1 | – | > 100 | – | > 100 | – | > 100 µM | – | > 100 | – | > 100 | – | > 100 | – | > 100 | – | > 100 | > 100 µM | – | – | –
12 | CC(C)CCC[C@@H](C)C1CCC2[C@@H]3CC=C4C[C@@H](OC(=O)CCC(=O)NCC[N+](C)(C)CCCS(=O)(=O)[O-])CC[C@]4(C)C3CC[C@@]21C (stereo partly drawn) | – | 33.1 | – | 32.9 | – | 79.5 µM | – | 36 | – | – | – | 37.5 | – | 63.1 | – | – | 38.2 µM | – | – | –
13 | O=c1c2ccccc2oc2nccnc12 | – | > 100 | – | > 100 | – | > 100 µM | – | > 100 | – | > 100 | – | > 100 | – | > 100 | – | > 100 | > 100 µM | – | – | –
14 | Clc1cc(Cl)c2n[se]nc2c1 | – | > 100 | – | > 100 | – | > 100 µM | – | > 100 | – | > 100 | – | > 100 | – | > 100 | – | > 100 | > 100 µM | – | – | –
15 | O=C(Nc1ccc(Cl)cc1Cl)c1c/c(=N\O)c2ccc(O)cc2o1 | – | > 100 | – | > 100 | – | – | – | > 100 | – | > 100 | – | – | – | > 100 | – | > 100 | > 100 µM | – | – | > 100
16 | CCC(C)CNC1=C(NC(C)=O)C(=O)c2ccccc2C1=O (stereo not drawn) | – | > 100 | – | > 100 | – | > 100 µM | – | > 100 | – | > 100 | – | > 100 | – | > 100 | – | > 100 | > 100 µM | – | – | –
